Activity calls are given as the source filed them. No rule for the calls is given here.

In this data set the test system is CCRIS mutagenicity, Ames/micronucleus/aberration tests. In words: CCRIS mutagenicity studies. The settings on record: Test System: AMES SALMONELLA TYPHIMURIUM

With `CC(C)(OOC(C)(C)c1ccccc1)c1ccccc1`, the mutagenic call runs as follows: (Strain/Indicator: TA97, Metabolic Activation: HAMSTER, LIVER, S-9, AROCLOR 1254 (10 OR 30%), Method: PREINCUBATION) “inactive; negative”; (Strain/Indicator: TA97, Metabolic Activation: NONE, Method: PREINCUBATION) “inactive; negative”; (Strain/Indicator: TA97, Metabolic Activation: RAT, LIVER, S-9, AROCLOR 1254 (10 OR 30%), Method: PREINCUBATION) “inactive; negative”; (Strain/Indicator: TA97A, Metabolic Activation: MOUSE LIVER S-9, AROCLOR 1254, Method: PREINCUBATION) “inactive; negative”; (Strain/Indicator: TA97A, Metabolic Activation: NONE, Method: PREINCUBATION) “inactive; negative”; (Strain/Indicator: TA97A, Metabolic Activation: RAT LIVER S-9, AROCLOR 1254, Method: PREINCUBATION) “inactive; negative”. The mutagenic call reads like this: (Strain/Indicator: TA98, Metabolic Activation: HAMSTER, LIVER, S-9, AROCLOR 1254 (10 OR 30%), Method: PREINCUBATION) “inactive; negative”; (Strain/Indicator: TA98, Metabolic Activation: NONE, Method: FLUCTUATION (MICROTITER)) “inactive; negative”; (Strain/Indicator: TA98, Metabolic Activation: NONE, Method: PREINCUBATION) “inactive; negative”; (Strain/Indicator: TA98, Metabolic Activation: RAT LIVER S-9, AROCLOR 1254, Method: FLUCTUATION (MICROTITER)) “inactive; negative”; (Strain/Indicator: TA98, Metabolic Activation: RAT, LIVER, S-9, AROCLOR 1254 (10 OR 30%), Method: PREINCUBATION) “inactive; negative”; (Strain/Indicator: TA100, Metabolic Activation: HAMSTER, LIVER, S-9, AROCLOR 1254 (10 OR 30%), Method: PREINCUBATION) “inactive; negative”. In addition, the mutagenic call reads like this: (Strain/Indicator: TA100, Metabolic Activation: MOUSE LIVER S-9, AROCLOR 1254, Method: PREINCUBATION) “inactive; negative”; (Strain/Indicator: TA100, Metabolic Activation: NONE, Method: PREINCUBATION) “inactive; negative”; (Strain/Indicator: TA100, Metabolic Activation: RAT LIVER S-9, AROCLOR 1254, Method: PREINCUBATION) “inactive; negative”; (Strain/Indicator: TA100, Metabolic Activation: RAT, LIVER, S-9, AROCLOR 1254 (10 OR 30%), Method: PREINCUBATION) “inactive; negative”; (Strain/Indicator: TA102, Metabolic Activation: NONE, Method: PREINCUBATION) “inactive; negative”; (Strain/Indicator: TA102, Metabolic Activation: RAT LIVER S-9, AROCLOR 1254, Method: PREINCUBATION) “inactive; negative”. Further, the mutagenic call was “inactive; negative” (Strain/Indicator: TA104, Metabolic Activation: MOUSE LIVER S-9, AROCLOR 1254, Method: PREINCUBATION); “inactive; negative” (Strain/Indicator: TA104, Metabolic Activation: NONE, Method: PREINCUBATION); “inactive; negative” (Strain/Indicator: TA104, Metabolic Activation: RAT LIVER S-9, AROCLOR 1254, Method: PREINCUBATION); “inactive; negative” (Strain/Indicator: TA1535, Metabolic Activation: HAMSTER, LIVER, S-9, AROCLOR 1254 (10 OR 30%), Method: PREINCUBATION); “inactive; negative” (Strain/Indicator: TA1535, Metabolic Activation: NONE, Method: PREINCUBATION); “inactive; negative” (Strain/Indicator: TA1535, Metabolic Activation: RAT, LIVER, S-9, AROCLOR 1254 (10 OR 30%), Method: PREINCUBATION). The mutagenic call is, setting by setting: (Strain/Indicator: TA1537, Metabolic Activation: NONE, Method: FLUCTUATION (MICROTITER)) “inactive; negative”; (Strain/Indicator: TA1537, Metabolic Activation: RAT LIVER S-9, AROCLOR 1254, Method: FLUCTUATION (MICROTITER)) “inactive; negative”; (Strain/Indicator: TA7001, Metabolic Activation: NONE, Method: FLUCTUATION (MICROTITER)) “inactive; negative”; (Strain/Indicator: TA7001, Metabolic Activation: RAT LIVER S-9, AROCLOR 1254, Method: FLUCTUATION (MICROTITER)) “inactive; negative”; (Strain/Indicator: TA7002, Metabolic Activation: NONE, Method: FLUCTUATION (MICROTITER)) “inactive; negative”; (Strain/Indicator: TA7002, Metabolic Activation: RAT LIVER S-9, AROCLOR 1254, Method: FLUCTUATION (MICROTITER)) “inactive; negative”. In addition, the mutagenic call (Strain/Indicator: TA7003, Metabolic Activation: NONE, Method: FLUCTUATION (MICROTITER)) is “inactive; negative”; the mutagenic call (Strain/Indicator: TA7003, Metabolic Activation: RAT LIVER S-9, AROCLOR 1254, Method: FLUCTUATION (MICROTITER)) is “inactive; negative”; the mutagenic call (Strain/Indicator: TA7004, Metabolic Activation: NONE, Method: FLUCTUATION (MICROTITER)) is “inactive; negative”; the mutagenic call (Strain/Indicator: TA7004, Metabolic Activation: RAT LIVER S-9, AROCLOR 1254, Method: FLUCTUATION (MICROTITER)) is “inactive; negative”; the mutagenic call (Strain/Indicator: TA7005, Metabolic Activation: NONE, Method: FLUCTUATION (MICROTITER)) was “inactive; negative”; the mutagenic call (Strain/Indicator: TA7005, Metabolic Activation: RAT LIVER S-9, AROCLOR 1254, Method: FLUCTUATION (MICROTITER)) is “inactive; negative”. For the same compound, the mutagenic call is, setting by setting: (Strain/Indicator: TA7006, Metabolic Activation: NONE, Method: FLUCTUATION (MICROTITER)) “inactive; negative”; (Strain/Indicator: TA7006, Metabolic Activation: RAT LIVER S-9, AROCLOR 1254, Method: FLUCTUATION (MICROTITER)) “inactive; negative”.

As for `CC(=O)Nc1ccc(Oc2ccc(N)cc2)cc1`, the mutagenic call was “inactive; negative” (Strain/Indicator: TA98, Metabolic Activation: NONE, Method: STANDARD PLATE); “active; positive” (Strain/Indicator: TA98, Metabolic Activation: RAT, LIVER, S-9, PCB, Method: STANDARD PLATE); “inactive; negative” (Strain/Indicator: TA100, Metabolic Activation: NONE, Method: STANDARD PLATE); “active; positive” (Strain/Indicator: TA100, Metabolic Activation: RAT, LIVER, S-9, PCB, Method: STANDARD PLATE).

Values taken from PubChem BioAssay AID1259407 (Chemical Carcinogenesis Research Information System (CCRIS), 2018).
